Measured values reported in US20090143400A1, “PURINE DERIVATIVES HAVING IMMUNO-MODULATING PROPERTIES” (priority 2005, published 2009).
In brackets after ≈: the same amount, converted by molar mass.

Experiments:
[1] = system: rat spleen cells; format: cell-based
[2] = Solubility testing; format: physicochemical; conditions: aqueous buffer, thermodynamic from solid; 0.1 M phosphate buffer, shaken overnight at 20° C., HPLC/UV; Examples of the invention
Description: Saturated solutions for determining the solubility were prepared by placing about 0.3-3.0 ml of 0.1 M phosphare buffer in glass screw-top sample tubes along with some of the test compound. The tubes were then shaken overnight at constant temperature (20° C.). After shaking, undissolved material should be present in the solution, and more test compound should be added and shaking continued if this is not the case. The samples were then transferred to a centrifuge tube and centrifuged using a Heraeus Biofuge Fresco centrifuge at 13000 rpm for 30 minutes. The supernatant was then removed, placed in a new centrifuge tube and centrifuged again for 30 minutes at 13000 rpm. The undissolved material formed a pellet at the bottom of the tube and the liquid above the pellet was removed and was ready for assaying. The solution was then analysed using HPLC with UV quantification. A standard was also prepared by accurately weighing a sample of the test compound and dissolving it in a suitable volume of a solvent that will dissolve it completely (typically, DMSO, ethanol or methanol). This sample was then analysed by HPLC/UV.
The solubility was calculated from the observed peak areas in the HPLC/UV chromatograms along with corrections for any dilutions of the sample and differences in injection volumes. The following equation was used: […]

[3] = target: T1, human TLR7 (Homo sapiens, UniProt Q9NYK1); experiment: Human TLR7 assay (HEK293 SEAP reporter); format: cell-based; conditions: minimal effective concentration to induce SEAP release; HEK293 with recombinant human TLR7, overnight incubation at 37° C., 0.1% DMSO
T1 construct: expressed in transfected cells; host or cells: HEK293 cell line stably expressing the pNiFty2-SEAP reporter plasmid
T1 sequence (Q9NYK1 27-1049): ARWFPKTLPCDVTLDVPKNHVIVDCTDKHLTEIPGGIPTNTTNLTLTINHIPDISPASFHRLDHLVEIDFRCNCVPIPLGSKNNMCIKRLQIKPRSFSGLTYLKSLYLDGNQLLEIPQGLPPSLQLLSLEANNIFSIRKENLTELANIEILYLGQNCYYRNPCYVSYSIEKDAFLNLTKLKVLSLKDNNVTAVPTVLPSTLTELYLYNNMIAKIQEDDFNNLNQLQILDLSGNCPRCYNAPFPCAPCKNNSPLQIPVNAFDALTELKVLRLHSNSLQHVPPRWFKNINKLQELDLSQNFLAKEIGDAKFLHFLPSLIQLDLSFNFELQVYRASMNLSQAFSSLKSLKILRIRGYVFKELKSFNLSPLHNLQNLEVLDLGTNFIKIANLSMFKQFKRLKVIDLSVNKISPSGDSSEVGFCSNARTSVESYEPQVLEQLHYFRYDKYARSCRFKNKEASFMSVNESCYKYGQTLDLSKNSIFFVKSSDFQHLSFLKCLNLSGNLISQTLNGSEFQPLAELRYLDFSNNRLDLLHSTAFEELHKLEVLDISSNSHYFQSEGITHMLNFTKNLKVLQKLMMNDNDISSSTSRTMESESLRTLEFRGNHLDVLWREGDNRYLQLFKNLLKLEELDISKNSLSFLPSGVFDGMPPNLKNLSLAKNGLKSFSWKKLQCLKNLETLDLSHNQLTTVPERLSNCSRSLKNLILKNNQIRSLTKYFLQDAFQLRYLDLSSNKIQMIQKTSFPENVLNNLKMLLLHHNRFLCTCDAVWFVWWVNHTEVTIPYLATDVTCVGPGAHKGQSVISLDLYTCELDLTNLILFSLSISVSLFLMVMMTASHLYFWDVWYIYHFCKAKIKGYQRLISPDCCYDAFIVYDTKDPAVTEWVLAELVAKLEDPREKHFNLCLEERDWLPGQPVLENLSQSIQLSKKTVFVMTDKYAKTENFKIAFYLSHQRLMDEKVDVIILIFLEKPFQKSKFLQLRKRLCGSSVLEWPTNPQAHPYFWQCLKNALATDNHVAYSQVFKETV
Text: Recombinant human TLR7 was stably expressed in a HEK293 cell line already stably expressing the pNiFty2-SEAP reporter plasmid; integration of the reporter gene was maintained by selection with the antibiotic zeocin. The most common variant sequence of human TLR7 (represented by the EMBL sequence AF240467) was cloned into the mammalian cell expression vector pUNO and transfected into this reporter cell-line. Transfectants with stable expression were selected using the antibiotic blasticidin. In this reporter cell-line, expression of secreted alkaline phosphatase (SEAP) is controlled by an NFkB/ELAM-1 composite promoter comprising five NFkB sites combined with the proximal ELAM-1 promoter. TLR signaling leads to the translocation of NFkB and activation of the promoter results in expression of the SEAP gene. TLR7-specific activation was assessed by determining the level of SEAP produced following overnight incubation of the cells at 37° C. with the standard compound in the presence of 0.1% (v/v) dimethylsulfoxide (DMSO). Concentration dependent induction of SEAP production by compounds was expressed as the minimal effective concentration of compound to induce SEAP release (pMEC).

Row | SMILES | Log MEC [1] | solubility [2] | pMEC [3]
1 | CCCCOc1nc(N)c2[nH]c(=O)n(CCCN(CCCN(C)C)Cc3cccc(CC(=O)OC)c3)c2n1 [Example 1, Methyl [3-({[3-(6-amino-2-butoxy-8-oxo-7,8-dihydro-9H-purin-9-yl)propyl][3-(dimethylamino)propyl]amino}methyl)phenyl]acetate] | 9.5 | 980 µg/mL (≈ 1860 µM) | 
2 | CCCCOc1nc(N)c2[nH]c(=O)n(CCCN(CCCN3CCCC3)Cc3cccc(CC(=O)OC)c3)c2n1 [Example 2, Methyl (3-{[[3-(6-amino-2-butoxy-8-oxo-7,8-dihydro-9H-purin-9-yl)propyl](3-pyrrolidin-1-ylpropyl)amino]methyl}phenyl)acetate] | 9.5 | 1940 µg/mL (≈ 3500 µM) | 7.4
3 | CCCCOc1nc(N)c2[nH]c(=O)n(CCCN(CCCN3CCN(C)CC3)Cc3cccc(CC(=O)OC)c3)c2n1 [Example 3, Methyl [3-({[3-(6-amino-2-butoxy-8-oxo-7,8-dihydro-9H-purin-9-yl)propyl][3-(4-methylpiperazin-1-yl)propyl]amino}methyl)phenyl]acetate] | 9.5 | 850 µg/mL (≈ 1460 µM) | 7.7
4 | CCCCOc1nc(N)c2[nH]c(=O)n(CCCN(CCN(C)C)Cc3cccc(CC(=O)OC)c3)c2n1 [Example 4, Methyl [3-({[3-(6-amino-2-butoxy-8-oxo-7,8-dihydro-9H-purin-9-yl)propyl][2-(dimethylamino)ethyl]amino}methyl)phenyl]acetate] | 9.5 | 830 µg/mL (≈ 1620 µM) | 
5 | CCCCOc1nc(N)c2[nH]c(=O)n(CCCN(CCCNC)Cc3cccc(CC(=O)OC)c3)c2n1 [Example 5, Methyl [3-({[3-(6-amino-2-butoxy-8-oxo-7,8-dihydro-9H-purin-9-yl)propyl][3-(methylamino)propyl]amino}methyl)phenyl]acetate] | 9.5 | 1820 µg/mL (≈ 3540 µM) | 7.2
6 | CCCCOc1nc(N)c2[nH]c(=O)n(CCCCN(CCCN3CCN(C)CC3)Cc3cccc(CC(=O)OC)c3)c2n1 [Example 6, Methyl [3-({[4-(6-amino-2-butoxy-8-oxo-7,8-dihydro-9H-purin-9-yl)butyl][3-(4-methylpiperazin-1-yl)propyl]amino}methyl)phenyl]acetate] | 9.0 | 1210 µg/mL (≈ 2030 µM) | 
